Assays:
Type in all cases: biochemical
[1] = system: thrombus generated from the in vitro assembled plaques complexes; test: Thrombolytic assay with PLG cascade proteins; details: thrombus from cholesterol, lipids, CP and CO complexes
Procedure: To examine this, both PLG and PLG activators are used to target these clots. Thrombolytic assays are carried out in 100 μl reaction containing thrombus, generated from 100 μl of aggregates or plaque complexes, 1 μg of PLG and 20 ng of u-PA or t-PA in PBS buffer. The reactions are incubated at 37° C. for 1 hr and after every 15 min the tubes are gently tapped to mix the contents. After 1 hr incubation, 1 ml of PBS is added to all the tubes and the samples are visually examined for dissolution of the thrombus.
The thrombus generated from the cholesterol, lipids, CP, and CO complexes are incubated separately with PLG, u-PA and t-PA to examine whether these proteins individually could dissolve the clots.
This could be due to the inhibition of u-PA by the PAI-1 thereby preventing the activation of the PLG. In the next experiment, the aggregates of CP-Cholesterol, CP-Lipids, CP-Cholesterol-Lipids, Cholesterol-Lipids, CO-Cholesterol and CO-Lipids are individually used in CPA for five cycles to assemble complexes followed by their thrombus generation.
The example depicted in FIG. 18 illustrates the dissolution of thrombi by PLG and u-PA. […] Both the clots and the dissolved complexes are further examined under microscope to confirm the visual examination (FIGS. 18a, b, c and d). The thrombus formed in the urine is also dissolved by the action of PLG and u-PA.

[2] = system: iron loaded abeta42 aggregates mixed with CE proteins; test: Proteolysis of amyloid plaque complexes assembled on iron loaded abeta42 aggregates; details: 20 ng
Procedure: This example illustrates the use of the invention to evaluate the proteolytic degradation of the amyloid complexes. For example, iron loaded abeta42 aggregates are mixed with CE proteins, and the resulting template complexes are treated with five different serine proteases. More specifically, nine independent reactions are carried out with each containing 5.0 μg of the iron-loaded aggregates of abeta42 and 6.0 μg of the CE proteins. After incubation and washing, the complexes are suspended in 50 μl of PBS. The nine complexes are sub-divided into two groups, with six individual complexes comprising Group I and three complexes comprising Group II. In order to interrogate the role of the plasminogen (PLG) activation system, which is implicated in the catabolism of amyloid peptides as well as the pathobiology of amyloid diseases (Melchor J P et al, 2003; Van Nostrand W E et al, 1999; Kranenburg O, 2005), the Group II complexes are subjected to another cycle of binding with both PLG (0.5 μg) and BSA (0.5 μg) proteins. After binding and washing, the PLG and BSA bound plaques complexes are suspended in 50 μl of PBS.
For proteolysis analysis, five of the six Group I template complexes are incubated with 20 ng of each protease (plasnin, chymotrypsin, trypsin, proteinase K and urokinase). The remaining complex is used as a control without protease treatment. Among three complexes of the Group II containing PLG attached to them, one is treated with u-PA (20 ng), a second is treated with t-PA (20 ng) and the third complex is used as a control without protease treatment. All these plaque complexes are incubated at 37° C. for 1 hr and after every 15 min, the tubes are gently tapped in order to encourage mixing. After washing, both the proteases-treated and control plaque complexes are suspended in 20 μl PBS. The complexes are boiled for 10 min with sample solubilizing buffer and loaded in to 4-20% gradient SDS-PAGE. Further, the gels are processed for silver staining and the results are documented for further analysis.

[3] = target: T1, iron-loaded abeta40 templates plaque complex (Homo sapiens, UniProt P00747); test: Proteolysis of plaque complexes assembled on iron-loaded abeta40 templates
T1 construct: Lys-Plasminogen (PLG); purchased Enzyme Research Laboratories (IN, USA)
Procedure: In order to verify the preceding results, such experiments are repeated using iron-loaded abeta40 templates for plaque complex formation. Proteins binding to the abeta40 templates appear to be cleared when they are treated with the same proteases.

[4] = target: T2, pre-assembled amyloid plaque like complexes (iron-loaded abeta42 templates) (Homo sapiens, UniProt P00747); test: Dissolution of pre-assembled amyloid plaque like complexes; details: 20 ng, 37° C., 1 hr
T2 construct: Lys-Plasminogen (PLG); purchased Enzyme Research Laboratories (IN, USA)
Procedure: In order to identify lead compounds able to dissolve the pre-assembled amyloid plaque like complexes, the preceding experiments are repeated to assemble complexes in three cycles using the iron-loaded abeta42 templates. Then, 50 μl of the resulting complexes is incubated with test compound/s (50 ng to 1 μg) for 1 hr at 37° C. followed by washing and analysis of the complexes for their dissolution. For example, 50 μl of the pre-assembled complexes is mixed with u-PA or t-PA (20 ng) at 37° C. for 1 hr followed by washing and protein estimation or gel analysis of the resultant complexes. […] This approach is also useful to optimize u-PA (PGN54) molecule for use as a therapeutic lead to treat patients with advanced amyloid diseases such as Alzheimer. Reducing the amyloid plaque burden or plaque build-up in the cerebral arteries would greatly improve or reverse the pathological symptoms associated with the amyloid diseases. In addition, to test the hypothesis of amyloid plaque burden reduction as an effective strategy, optimized u-PA or other plasminogen activators are used in the animal models of Alzheimer's disease.

T1 sequence (P00747 97-810, one chain of several): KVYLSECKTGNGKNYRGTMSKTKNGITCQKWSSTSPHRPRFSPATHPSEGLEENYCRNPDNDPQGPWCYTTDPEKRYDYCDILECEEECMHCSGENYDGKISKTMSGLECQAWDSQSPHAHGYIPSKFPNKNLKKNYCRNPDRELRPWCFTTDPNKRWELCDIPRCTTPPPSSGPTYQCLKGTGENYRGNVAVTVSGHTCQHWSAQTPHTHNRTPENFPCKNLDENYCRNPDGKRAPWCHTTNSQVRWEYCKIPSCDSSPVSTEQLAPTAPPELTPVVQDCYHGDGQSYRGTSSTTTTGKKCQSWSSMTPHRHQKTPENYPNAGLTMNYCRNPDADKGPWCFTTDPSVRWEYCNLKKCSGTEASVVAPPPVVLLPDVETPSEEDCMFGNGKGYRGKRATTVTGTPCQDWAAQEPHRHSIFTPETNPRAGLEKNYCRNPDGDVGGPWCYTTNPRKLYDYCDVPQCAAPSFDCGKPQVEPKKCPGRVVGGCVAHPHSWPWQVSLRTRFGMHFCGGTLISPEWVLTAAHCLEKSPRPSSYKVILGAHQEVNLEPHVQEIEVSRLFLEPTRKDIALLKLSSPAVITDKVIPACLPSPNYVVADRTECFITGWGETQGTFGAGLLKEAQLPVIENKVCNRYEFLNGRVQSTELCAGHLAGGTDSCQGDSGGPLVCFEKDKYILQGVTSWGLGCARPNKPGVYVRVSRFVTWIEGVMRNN
T2 sequence (P00747 97-810, one chain of several): as above

Substance: t-PA: tissue-type plasminogen activator
- Dissolution of thrombus, protein incubated separately [1]: did not show any dissolution
- Activation of PLG on PLG/BSA-attached complexes [2]: the inactive PLG is converted into active plasmin
- Activation of PLG-bound complex [3]: activate the PLG-bound complex
- Protein concentration of pre-assembled complexes after incubation [4]: show reduction in the protein concentration

— patent publication US8932558B2, “Multi-subunit biological complexes for treatment of plaque-associated diseases” (Plaxgen Inc, priority 2007, dated 2015)
